# Data published in patent US20200095236A1, “ANTIBACTERIAL COMPOUNDS” (FORGE THERAPEUTICS, INC., priority 2017, published 2020).
# Where two headings read alike, the source gives them in different places.
# Assays:
# Format in all cases: cell-based
# [1] = tested on: K. pneumoniae; assay: Bacterial susceptibility testing, MIC by broth microdilution (CLSI); details: Klebsiella pneumoniae, read-out: K. pneumoniae MIC
# Description: (§1) Minimal inhibitory concentrations (MIC) were determined by the broth microdilution method in accordance with the Clinical and Laboratory Standards Institute (CLSI) guidelines. In brief, organism suspensions were adjusted to a 0.5 McFarland standard to yield a final inoculum between 3×10^5 and 7×10^5 colony-forming units (CFU)/mL. Drug dilutions and inocula were made in sterile, cation adjusted Mueller-Hinton Broth (Beckton Dickinson). An inoculum volume of 100 μL was added to wells containing 100 μL of broth with 2-fold serial dilutions of drug. All inoculated microdilution trays were incubated in ambient air at 35° C. for 18-24 h. Following incubation, the lowest concentration of the drug that prevented visible growth (OD600 nm<0.05) was recorded as the MIC. Performance of the assay was monitored by the use of laboratory quality-control strains and levofloxacin, a compound with a defined MIC spectrum, in accordance with CLSI guidelines.
# [2] = tested on: E. coli; assay: as above; details: Escherichia coli, read-out: E. coli MIC
# Description: as §1
# [3] = tested on: TLR-4 activity of A. baumannii culture supernatants; assay: TLR4 assay: TLR4 activity of A. baumannii culture supernatants in HEK-Blue-hTLR4 cells; details: Acinetobacter baumannii, HEK-Blue hTLR4, read-out: % TLR-4 activity
# Description: The TLR4 assay measures activity of diluted filter-sterilized A. baumannii culture supernatants. The assay was performed as described in Lin et al, Mbio, 2012. Briefly, A. baumannii was passaged to mid log-phase in the presence of Forge LpxC inhibitors. Culture supernatants were harvested, filter-sterilized and diluted 1:1000. TLR4 activity of the supernatants was tested using HEK-Blue-hTLR4 cells (Invivogen) that carry NF-kB and AP-1 driven SEAP (secreted embryonic alkaline phosphatase) reporter gene.
# Exemplary TLR4 assay data (% TLR-4 activity) for compounds in embodiments of the disclosure.
# [4] = tested on: S. aureus; assay: Bacterial susceptibility testing, MIC by broth microdilution (CLSI); details: Staphylococcus aureus, read-out: S. aureus MIC
# Description: as §1
# [5] = broth microdilution, 35° C., 18-24 h
SMILES,"MIC [1, 5]","MIC [2, 5]","MIC [4, 5]",also measured
"O=c1[nH]cnc(C(CNCCc2cccnc2)Cc2ccc(C#Cc3ccc(CN4CCOCC4)cc3)cc2)c1O (centres unmarked) [Compound 251, 5-hydroxy-6-(1-(4-((4-(morpholinomethyl)phenyl)ethynyl)phenyl)-3-((2-(pyridin-3-yl)ethyl)amino)propan-2-yl)pyrimidin-4(3H)-one]",> 32 µg/mL,> 32 µg/mL,,
"O=c1[nH]cnc(C(CNCCF)Cc2ccc(C#Cc3ccc(CN4CCOCC4)cc3)cc2)c1O (centres unmarked) [Compound 58, 6-(1-((2-fluoroethyl)amino)-3-(4-((4-(morpholinomethyl)phenyl)ethynyl)phenyl)propan-2-yl)-5-hydroxypyrimidin-4(3H)-one]",,,,activity at 4 µg/mL [3]: < 20%; activity at 8 µg/mL [3]: < 20%; activity at 16 µg/mL [3]: < 20%
"O=C(Nc1cnoc1)C(Cc1ccc(C#Cc2ccc(CN3CCOCC3)cc2)cc1)c1nc[nH]c(=O)c1O (centres unmarked) [Compound 4, 2-(5-hydroxy-6-oxo-1,6-dihydropyrimidin-4-yl)-N-(isoxazol-4-yl)-3-(4-((4-(morpholinomethyl)phenyl)ethynyl)phenyl) propanamide]",> 32 µg/mL,1 to 8 µg/mL,> 32 µg/mL,
"O=c1[nH]cnc(C(Cc2ccc(C#Cc3ccc(CN4CCOCC4)cc3)cc2)CN2CCOCC2)c1O (centres unmarked) [Compound 249, 5-hydroxy-6-(1-morpholino-3-(4-((4-(morpholinomethyl)phenyl)ethynyl)phenyl)propan-2-yl)pyrimidin-4(3H)-one]",> 32 µg/mL,< 1 µg/mL,,
"O=c1[nH]cnc(C2(Cc3ccc(C#Cc4ccc(CN[C@@H]5CCOC5)cc4)cc3)CC2)c1O [Compound 247, (R)-5-hydroxy-6-(1-(4-((4-(((tetrahydrofuran-3-yl)amino)methyl)phenyl)ethynyl)benzyl)cyclopropyl)pyrimidin-4(3H)-one]",8 to 32 µg/mL,1 to 8 µg/mL,,
"O=C(Nc1cnc[nH]1)C(Cc1ccc(C#Cc2ccc(CN3CCOCC3)cc2)cc1)c1nc[nH]c(=O)c1O (centres unmarked) [Compound 9, 2-(5-hydroxy-6-oxo-1,6-dihydropyrimidin-4-yl)-N-(1H-imidazol-5-yl)-3-(4-((4-(morpholinomethyl)phenyl)ethynyl)phenyl) propanamide]",> 32 µg/mL,> 32 µg/mL,> 32 µg/mL,
"O=C(CF)NCC(Cc1ccc(C#Cc2ccc(CCN3CCOCC3)cc2)cc1)c1nc[nH]c(=O)c1O (centres unmarked) [Compound 16, 2-fluoro-N-(2-(5-hydroxy-6-oxo-1,6-dihydropyrimidin-4-yl)-3-(4-((4-(2-morpholinoethyl)phenyl)ethynyl)phenyl)propyl)acetamide]",,,,MIC [4]: > 32 µg/mL; MIC [1]: 8 to 32 µg/mL; MIC [2]: 1 to 8 µg/mL
"CC(NC(=O)CF)C(Cc1ccc(C#Cc2ccc(CN3CCOCC3)cc2)cc1)c1nc[nH]c(=O)c1O (centres unmarked) [Compound 42, 2-fluoro-N-(3-(5-hydroxy-6-oxo-1,6-dihydropyrimidin-4-yl)-4-(4-((4-(morpholinomethyl)phenyl)ethynyl)phenyl)butan-2-yl)acetamide]",,,,MIC [4]: > 32 µg/mL; MIC [1]: > 32 µg/mL; MIC [2]: > 32 µg/mL
"O=C(NCCO)C(Cc1ccc(C#Cc2ccc(CN3CCOCC3)cc2)cc1)c1nc[nH]c(=O)c1O (centres unmarked) [Compound 7, 2-(5-hydroxy-6-oxo-1,6-dihydropyrimidin-4-yl)-N-(2-hydroxyethyl)-3-(4-((4-(morpholinomethyl)phenyl)ethynyl)phenyl) propanamide]",> 32 µg/mL,8 to 32 µg/mL,> 32 µg/mL,
"CCCNCC(Cc1ccc(C#Cc2ccc(CN3CCOCC3)cc2)cc1)c1nc[nH]c(=O)c1O (centres unmarked) [Compound 60, 5-hydroxy-6-(1-(4-((4-(morpholinomethyl)phenyl)ethynyl)phenyl)-3-(propylamino)propan-2-yl)pyrimidin-4(3H)-one]",,,,activity at 4 µg/mL [3]: > 80%; activity at 8 µg/mL [3]: > 80%; activity at 16 µg/mL [3]: > 80%
"N[C@@H]1CCN(Cc2ccc(C#Cc3ccc(CC(CNC(=O)CF)c4nc[nH]c(=O)c4O)cc3)cc2)C1 (stereo partly drawn) [Compound 45, N-(3-(4-((4-(((R)-3-aminopyrrolidin-1-yl)methyl)phenyl)ethynyl)phenyl)-2-(5-hydroxy-6-oxo-1,6-dihydropyrimidin-4-yl)propyl)-2-fluoroacetamide]",,,,MIC [4]: > 32 µg/mL; MIC [1]: > 32 µg/mL; MIC [2]: > 32 µg/mL
"O=C(Nc1ccn[nH]1)C(Cc1ccc(C#Cc2ccc(CN3CCOCC3)cc2)cc1)c1nc[nH]c(=O)c1O (centres unmarked) [Compound 8, 2-(5-hydroxy-6-oxo-1,6-dihydropyrimidin-4-yl)-3-(4-((4-(morpholinomethyl)phenyl)ethynyl)phenyl)-N-(1H-pyrazol-5-yl)propanamide]",> 32 µg/mL,> 32 µg/mL,> 32 µg/mL,
"O=C(Nc1nnn[nH]1)C(Cc1ccc(C#Cc2ccc(CN3CCOCC3)cc2)cc1)c1nc[nH]c(=O)c1O (centres unmarked) [Compound 11, 2-(5-hydroxy-6-oxo-1,6-dihydropyrimidin-4-yl)-3-(4-((4-(morpholinomethyl)phenyl)ethynyl)phenyl)-N-(1H-tetrazol-5-yl)propanamide]",> 32 µg/mL,> 32 µg/mL,> 32 µg/mL,
"N#CC1CCN(Cc2ccc(C#Cc3ccc(CC(C(=O)NCC(F)F)c4nc[nH]c(=O)c4O)cc3)cc2)C1 (centres unmarked) [Compound 102, 3-(4-((4-((3-cyanopyrrolidin-1-yl)methyl)phenyl)ethynyl)phenyl)-N-(2,2-difluoroethyl)-2-(5-hydroxy-6-oxo-1,6-dihydropyrimidin-4-yl)propanamide]",,,,activity at 4 µg/mL [3]: 20 to 50%; activity at 8 µg/mL [3]: < 20%; activity at 16 µg/mL [3]: < 20%

# Continued, in another order:
"MIC [1, 5]","MIC [2, 5]","MIC [4, 5]",SMILES,also measured
> 32 µg/mL,8 to 32 µg/mL,> 32 µg/mL,"C=CCNC(=O)C(Cc1ccc(C#Cc2ccc(CN3CCOCC3)cc2)cc1)c1nc[nH]c(=O)c1O (centres unmarked) [Compound 6, N-allyl-2-(5-hydroxy-6-oxo-1,6-dihydropyrimidin-4-yl)-3-(4-((4-(morpholinomethyl)phenyl)ethynyl)phenyl)propanamide]",
8 to 32 µg/mL,1 to 8 µg/mL,> 32 µg/mL,"CC(=O)NCC(Cc1ccc(C#Cc2ccc(CN3CCOCC3)cc2)cc1)c1nc[nH]c(=O)c1O (centres unmarked) [Compound 19, N-(2-(5-hydroxy-6-oxo-1,6-dihydropyrimidin-4-yl)-3-(4-((4-(morpholinomethyl)phenyl)ethynyl)phenyl)propyl)acetamide]",
8 to 32 µg/mL,1 to 8 µg/mL,> 32 µg/mL,"C=CC(=O)NCC(Cc1ccc(C#Cc2ccc(CN3CCOCC3)cc2)cc1)c1nc[nH]c(=O)c1O (centres unmarked) [Compound 20, N-(2-(5-hydroxy-6-oxo-1,6-dihydropyrimidin-4-yl)-3-(4-((4-(morpholinomethyl)phenyl)ethynyl)phenyl)propyl)acrylamide]",
8 to 32 µg/mL,1 to 8 µg/mL,> 32 µg/mL,"COC(=O)NCC(Cc1ccc(C#Cc2ccc(CN3CC4CCC(C3)O4)cc2)cc1)c1nc[nH]c(=O)c1O (centres unmarked) [Compound 21, methyl (3-(4-((4-((8-oxa-3-azabicyclo[3.2.1]octan-3-yl)methyl)phenyl)ethynyl)phenyl)-2-(5-hydroxy-6-oxo-1,6-dihydropyrimidin-4-yl)propyl)carbamate]",
> 32 µg/mL,> 32 µg/mL,,"O=c1[nH]cnc(C2(Cc3ccc(C#Cc4ccc(CN5CCOCC5)cc4)cc3)CC2)c1O [Compound 246, 5-hydroxy-6-(1-(4-((4-(morpholinomethyl)phenyl)ethynyl)benzyl)cyclopropyl)pyrimidin-4(3H)-one]",
< 1 µg/mL,< 1 µg/mL,> 32 µg/mL,"O=c1[nH]cnc(CCc2ccc(C#Cc3ccc(CN4CCOCC4)cc3F)cc2)c1O [Compound 185, 6-(4-((2-fluoro-4-(morpholinomethyl)phenyl)ethynyl)phenethyl)-5-hydroxypyrimidin-4(3H)-one]",
> 32 µg/mL,1 to 8 µg/mL,> 32 µg/mL,"CNC(=O)C(Cc1ccc(C#Cc2ccc(CN3CCOCC3)cc2)cc1)c1nc[nH]c(=O)c1O (centres unmarked) [Compound 5, 2-(5-hydroxy-6-oxo-1,6-dihydropyrimidin-4-yl)-N-methyl-3-(4-((4-(morpholinomethyl)phenyl)ethynyl)phenyl) propanamide]",
< 1 µg/mL,< 1 µg/mL,> 32 µg/mL,"O=c1[nH]cnc(CCc2ccc(C#Cc3ccc(CN4CCOCC4)c(F)c3)cc2)c1O [Compound 186, 6-(4-((3-fluoro-4-(morpholinomethyl)phenyl)ethynyl)phenethyl)-5-hydroxypyrimidin-4(3H)-one]",
1 to 8 µg/mL,< 1 µg/mL,> 32 µg/mL,"N#CC1CN(Cc2ccc(C#Cc3ccc(CCc4nc[nH]c(=O)c4O)cc3F)cc2)C1 [Compound 188, 1-(4-((2-fluoro-4-(2-(5-hydroxy-6-oxo-1,6-dihydropyrimidin-4-yl)ethyl)phenyl)ethynyl)benzyl)azetidine-3-carbonitrile]",
